In paper PMC3084834, “Non-Conjugated Small Molecule FRET for Differentiating Monomers from Higher Molecular Weight Amyloid Beta Species” (PLoS ONE, 2011):

Columns and labels:
[1] = biological target: T1, Amyloid beta 40 (Aβ40) aggregates (Homo sapiens, UniProt P05067); assay: fluorescence titration of Aβ[…] aggregates, one-site binding fit
T1 construct: gene APP; synthetic amyloid-β peptide (1-40), aggregated

[2] = biological target: T1, Amyloid beta 40 (Aβ40) aggregates; assay: FRET with CRANAD-5 on Aβ[…] aggregates; apparent Kd printed in Results; format: binding; settings: cited from earlier work

T1 sequence (P05067 672-711 limits assumed): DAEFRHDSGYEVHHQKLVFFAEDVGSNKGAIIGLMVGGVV

| Kd [1] [nM] | Compound | Kd [2] [nM] |
| --- | --- | --- |
| 10.5 ± 2.5 | CN(C)c1ccc(/C=C/C(=O)/C=C(O)/C=C/c2ccc(N(C)C)cc2)cc1 [CRANAD-5] | – |
| – | CN(C)c1ccc(/C=C/C2=CC(/C=C/c3ccc(N(C)C)cc3)=[O+][B-](F)(F)O2)cc1 [CRANAD-2] | 38 |
